Bounds are passed on as bounds.

A short description of series [1]: Blood concentration measurement test. Conditions: male, Crl:CD (Sprague-Dawley), rat, plasma, 10 mg/kg. It counts as in vivo. As to the method:
Male Crl:CD (Sprague-Dawley) rats (SPF; Charles River Japan; 8-week-old) were subcutaneously administered the various preparations (microspheres) shown in Table 9 below at a dose of 5 mL/kg under non-fasting conditions. […] The blood thus obtained was centrifuged at 12,000 rpm for 2 minutes, and the supernatant was collected as plasma.
Blood concentration measurements of the present drug in the resulting plasma were carried out by a LC/MS/MS method. Pretreatment of the plasma consisted of adding an internal standard solution to the plasma and diluting with water, then loading into a solid-phase extraction cartridge column (ODS-B) and deproteinization by rinsing with water, followed by elution with methanol, concentration, and drying to hardness. The residue thus obtained was dissolved by adding 0.1% aqueous acetic acid/acetonitrile, and the resulting solution was poured into the LC/MS/MS apparatus.
• Present drug (Precursor ion (m/z)*: 429.2; Product ion (m/z)*: 79.2) • Internal standard (Precursor ion (m/z)*: 445.4; Product ion (m/z)*: 168.1) • *: Mass-to-charge ratio Retention time for present drug: 8.15 minutes • Test Group 1: Microspheres of Test Preparation 1 were administered subcutaneously at a dose of the present drug of 10 mg/kg. • Test Group 2: Microspheres of Test Preparation 2 were administered subcutaneously at a dose of the present drug of 10 mg/kg. • Test Group 3: Administered subcutaneously at a dose of the present drug of 10 mg/kg. • Test Group 4: Administered orally at a dose of the present drug of 10 mg/kg.
The test preparations used on the respective dose groups were formulated as shown below in Table 9. Each of the test preparations was prepared in general accordance with the method described in Preparation Example 1.

The subject of the next series is EGF. The experiment in a line: EGF production promoting effect, angiogenesis kit culture, ELISA. It counts as cell-based, human. Conditions: 100 nmol/L. As to the method:
An angiogenesis kit (Kurabo Industries Ltd.) composed of normal human umbilical vein endothelial cells and normal human skin fibroblasts was procured and used.
Using a carbon dioxide incubator (BNA-121D) and using Angiogenesis Culture 2 provided with the angiogenesis kit as the liquid culture, culturing was carried out in a wet environment at 37° C. with 5% carbon dioxide/95% air.
Immediately after the kit arrived, the cells were cultured for 3 hours, following which the liquid culture was replaced and culturing was continued. Three days after the start of culturing, the liquid culture was again replaced. Six days after the start of culturing, treatment with the present drug was carried out by replacing the liquid culture. The treatment concentration was set to 100 nmol/L in each case. DMSO treatment was carried out as a negative control. Six, 24, 48 and 72 hours after treatment with the present drug, the culture supernatant was collected and furnished for measurement of the growth factors. The measured growth factors were EGF and SDF-1.
The culture supernatant was measured with the following ELISA kits.
Human EGF Immunoassay (R&D Systems Inc., DEG00)

For series [2], the system named is STZ induced diabetes model. The series is described as follows: Nephropathy ameliorating action: 24 h urinary excretion, STZ induced diabetes model. It counts as in vivo. The following applies: urine, week 12; STZ rat; Test Group 3: 3 mg/kg oral twice daily. How it is done: Female Sprague-Dawley rats (8- to 11-week-old; Japan SLC, Inc.) were intraperitoneally administered 40 mg/kg of a citrate buffer (pH, approx. 4.5) of streptozotocin (STZ; Sigma). A normal control group was intraperitoneally given only the citrate buffer. Administration was carried out in accordance with the intended route of administration for clinical use. In Test Group 3, forced administration was carried out orally using a disposable syringe barrel and a rat stomach probe. In Test Group 4, intramuscular administration was carried out uniformly at four places within the muscle along the sciatic nerve in the femoral portion of the left leg. For subcutaneous administration in test Group 5, the animals were ether anesthetized, and subcutaneous administration was carried out in the dorsal region using a disposable syringe barrel and a disposable 25 G syringe needle. The volume of solution administered was computed based on the latest body weight. In week 12 from the start of test substance administration, the rats were transferred to a metabolic cage, given water ad libitum, and the urine was collected for 24 hours. […] Using the 7170 Clinical Analyzer (Hitachi, Ltd.), the total urinary protein (pyrogallol red method), creatinine (creatinase/F-DAOS method) and urine sugar were measured.

Setting [3] is: po, Test Group 4: present drug oral 10 mg/kg.
[4] abbreviates: sc, Test Group 3: present drug s.c. 10 mg/kg.

In series [1] (setting [3]), `O=C(O)COc1cccc2c1CCC=C2CCO/N=C(\c1ccccc1)c1cccnc1` [present drug, ({5-[2-({[(1E)-phenyl(pyridin-3-yl)methylene]amino}oxy)ethyl]-7,8-dihydronaphthalen-1-yl}oxy)acetic acid] came in with a concentration at 1 hour of 785 ng/mL, a concentration at 2 hours of 982 ng/mL, a concentration at 4 hours of 1320 ng/mL and a concentration at 8 hours of 705 ng/mL. In series [1] (setting [3]), this compound gave a concentration at 1 day of 80 ng/mL and a concentration at 3 days of 0.04 ng/mL. Further, in series [1] (setting [4]), the concentration at 1 hour came to 1750 ng/mL, the concentration at 2 hours stood at 1400 ng/mL, the concentration at 4 hours was found to be 685 ng/mL and the concentration at 8 hours worked out at 870 ng/mL. Moreover, in series [1] (setting [4]), the concentration at 1 day is 1.05 ng/mL and the concentration at 3 days turned out to be 0.05 ng/mL. Moreover, the concentration at 12 hours in series [1] (sc, Test Group 3: present drug s.c. 10 mg/kg, 12 hours) amounted to 204 ng/mL. In series [1] (sc, Test Group 3: present drug s.c. 10 mg/kg, 2 days), the concentration at 2 days was < 0.2 ng/mL. Moreover, the “EGF relative to the solvent control group” value with EGF (72 hours after treatment) is on record as “significantly increased”. The “EGF, Drug group” value with EGF (culture supernatant 72 hours after treatment) is 4995 ± 442 pg/mL. For the same compound, in series [2], the “Total excretion (mg/24 hrs) Creatinine” value was 116.76 ± 58.15 mg/24 hrs and the “Total excretion (mg/24 hrs) Total protein” value is given as 245.7 ± 231.9 mg/24 hrs.

The record behind these values is patent US8617614B2, “Sustained release preparation for tissue regeneration therapy” (Ono Pharmaceutical Co., Ltd., priority 2006, dated 2013).
